The test system of assay [1] is P. aeruginosa. Briefly: microbe, parasite or virus in culture. Format: cell-based, Pseudomonas aeruginosa (ATCC 27853). From the text:
(§1) These standard strains of Escherichia coli (E. coli, ATCC 8739), Staphylococcus aureus (S. aureus, ATCC 6538), Pseudomonas aeruginosa (P. aeruginosa, ATCC 27853), Acinetobacter baumannii (A. baumannii, ATCC 1968), Candida albicans (ATCC 10231), and the clinical strain of Methicillin-resistant Staphylococcus aureus (MRSA, MRSA-Z) were obtained from Kunming Medical University. The standard strain of C. neoformans (ATCC 32045) was purchased from Shanghai Yingxin Laboratory Co., Ltd. (CAS NO. YXJ50058). Different strains of E. coli, S. aureus, MRSA, P. aeruginosa, and A. baumannii were cultured with shaking at 37 °C in Luria–Bertani (LB) medium. C. neoformans was cultured at 35 °C in Sabouraud Dextrose Agar (SDA) medium according to the manufacturer’s instructions.
(§2) According to Clinical and Laboratory Standards Institute (CLSI) protocols, the minimum inhibitory concentration (MIC) is the minimum drug concentration at which antibiotics inhibit the growth and reproduction of strains. The different strains were grown in their corresponding media at 35 °C or 37 °C until they entered the exponential growth phase. Fluconazole and amphotericin B were used as positive controls, and sterile 0.9% NaCl was used as a negative control. The peptides were diluted to various concentrations in sterile saline. According to 1 OD = 1 × 10^9 CFU/mL, the above bacterial solution was diluted to 2 × 10^5 CFU/mL with the corresponding medium. In advance, 100 μL of normal saline was added to a sterile 96-well plate, and 200 μL of the sample to be tested was added to the first well. The sample to be tested was subjected to double gradient dilution, and then 100 μL of bacterial solution with a concentration of 2 × 10^5 was added to each well. It was cultured at 35 °C or 37 °C for different times. The light absorption value of the bacterial solution at 600 nm was detected by a microplate reader (Epoch Etock, Biotek, Winooski, VT, USA), and the average concentration of the samples in the pores and adjacent pores that could not detect microbial growth was used as the MIC value.

The test system of assay [2] is MRSA. Kind of assay: microbe, parasite or virus in culture. In kind it is cell-based.
From the text: as §1, §2

In assay [3] the test system is C. neoformans. Briefly: microbe, parasite or virus in culture. Format: cell-based, Cryptococcus neoformans (ATCC 32045).
From the text: as §1, §2

In assay [4] the test system is C. albicans. Kind of assay: microbe, parasite or virus in culture. In kind it is cell-based, Candida albicans (ATCC 10231).
From the text: as §1, §2

Assay [5] relates to E. coli. Briefly: microbe, parasite or virus in culture. Format: cell-based, Escherichia coli (ATCC 8739).
From the text: as §1, §2

The test system of assay [6] is A. baumannii. Kind of assay: microbe, parasite or virus in culture. In kind it is cell-based, Acinetobacter baumannii (ATCC 1968).
From the text: as §1, §2

For assay [7], the system named is S. aureus. Briefly: microbe, parasite or virus in culture. Format: cell-based, Staphylococcus aureus (ATCC 6538).
From the text: as §1, §2

Assay [8] has as its system C. neoformans ATCC 32045. Briefly: Fungal-killing kinetics. Format: cell-based, Cryptococcus neoformans. The following applies: positive control; concentration not stated in the sentence (1×, 5×, 10 × MIC tested). As for the experimental part: The single colony of C. neoformans ATCC 32045 was selected and cultured at 180 rpm and 37 °C, washed three times with normal saline, and then resuspended, and the fungal solution was diluted to 1 × 10^6 CFU/mL with SDB medium. The positive control was fluconazole, and the negative control was normal saline. […] The fungal liquid after adding the sample was quickly put into the 37 °C constant temperature incubator, and the shaking culture was carried out at 180 rpm. […] The plate was placed in a constant temperature incubator for inverted culture for 72 h at 37 °C, and then the single colony on the plate was counted.

[9] abbreviates: Cryptococcus neoformans, ATCC32045, ATCC 32045, double gradient dilution, 2 × 10^5 CFU/mL, 35 °C, OD 600 nm, mean of three independent experiments.
Where [10] appears, read: Candida albicans, ATCC10231, ATCC 10231, double gradient dilution, 2 × 10^5 CFU/mL, OD 600 nm, mean of three independent experiments.

≈ marks a conversion by molar mass, not a printed value. Where two headings read alike, the source gives them in different places. Where no end group is shown, it is not given here.

In the case of RWNTSRWLRL [blap-10], the MIC in assay [1] came to 312.50 µM; in assay [2], 19.54 µM; in assay [3] it was 312.5 µM; in assay [4], 156.30 µM.

As for FIKKMLGNFSNYVRRPGKR [blap-9], the MIC stood at 81.10 µM in assay [1]; 81.10 µM in assay [2]; 81.10 µM in assay [5]; 81.10 µM in assay [3]; 81.10 µM in assay [6]; 40.55 µM in assay [4]. The compound also yielded an MIC in assay [7] of 81.10 µM.

On to KRALSLPKMREDRLLYRGRA [blap-7], for which the MIC in assay [3] turned out to be 312.50 µM; in assay [4], 156.30 µM.

For RWKERKKWQKRWKRKKG [blap-8], the MIC in assay [1] is given as 7.81 µM; in assay [2], 156.30 µM; in assay [5] it was 312.50 µM; in assay [3] it was 19.53 µM; in assay [4], 19.53 µM; in assay [7], 156.3 µM.

In the case of `CC1(C)S[C@@H]2[C@H](NC(=O)[C@H](N)c3ccccc3)C(=O)N2[C@H]1C(=O)O` [Ampicillin, reference compound], the MIC in assay [1] (Pseudomonas aeruginosa, ATCC27853, ATCC 27853, double gradient dilution, 2 × 10^5 CFU/mL, LB, 37 °C, OD 600 nm, mean of three independent experiments) came to 31.6 µM (≈ 11 µg/mL); in assay [2] (Staphylococcus aureus, clinical strain MRSA-Z, double gradient dilution, 2 × 10^5 CFU/mL, LB, 37 °C, OD 600 nm, mean of three independent experiments), 126 µM (≈ 44.1 µg/mL); in assay [5] (Escherichia coli, ATCC8739, ATCC 8739, double gradient dilution, 2 × 10^5 CFU/mL, LB, 37 °C, OD 600 nm, mean of three independent experiments), 31.6 µM (≈ 11 µg/mL); in assay [6] (Acinetobacter baumannii, ATCC1968, ATCC 1968, double gradient dilution, 2 × 10^5 CFU/mL, LB, 37 °C, OD 600 nm, mean of three independent experiments) it was 31.6 µM (≈ 11 µg/mL); in assay [7] (Staphylococcus aureus, ATCC6538, ATCC 6538, double gradient dilution, 2 × 10^5 CFU/mL, LB, 37 °C, OD 600 nm, mean of three independent experiments) it was 63.1 µM (≈ 22.1 µg/mL).

For `OC(Cn1cncn1)(Cn1cncn1)c1ccc(F)cc1F` [Fluconazole, reference compound], the MIC in assay [3] (setting [9]) was found to be 6.36 µM (≈ 1.95 µg/mL); in assay [4] (setting [10]), 0.61 µM (≈ 0.187 µg/mL). Further, the “time required for fungicidal rate to reach more than 90%” value in assay [8] was 360 min.

`C[C@@H]1[C@H](O)[C@@H](C)/C=C/C=C/C=C/C=C/C=C/C=C/C=C/[C@H](O[C@@H]2O[C@H](C)[C@@H](O)[C@H](N)[C@@H]2O)C[C@@H]2O[C@](O)(C[C@@H](O)C[C@@H](O)[C@H](O)CC[C@@H](O)C[C@@H](O)CC(=O)O[C@H]1C)C[C@H](O)[C@H]2C(=O)O` [Amphotericin B, reference compound]: the MIC in assay [3] (setting [9]) and in assay [4] (setting [10]) was 0.05 µM (≈ 0.0462 µg/mL) in each case.
